Experimental data: article PMC12325182, “Discovery of novel and potent celastrol derivatives as PRDX1 inhibitors for cancer therapy through structure-based virtual screening” (Frontiers in Pharmacology, 2025)

How the values were obtained:
Test in all cases: Kinase selectivity assay
Assay type in all cases: biochemical
INSRR = INSRR (Homo sapiens, UniProt P14616); details: target INSRR; read-out: CP1 IC50
Experimental: (§1) The selectivity of CP1 for PRDX1 was evaluated through kinase selectivity assays against other PRDX family members and a panel of kinases. The experiments were conducted by ICE Biosciences (Beijing, China).

FES = biological target: T1, FES (Homo sapiens, UniProt P07332); details: target FES; read-out: CP1 IC50
T1 construct: assay run by ICE Biosciences (Beijing, China)
Experimental: as §1

FGR = biological target: T2, FGR (Homo sapiens, UniProt P09769); details: target FGR; read-out: CP1 IC50
T2 construct: assay run by ICE Biosciences (Beijing, China)
Experimental: as §1

YES1 = biological target: T3, YES1 (Homo sapiens, UniProt P07947); details: target YES1; read-out: CP1 IC50
T3 construct: ICE Biosciences (Beijing, China), a contract laboratory that ran the assay
Experimental: as §1

TYK2 = biological target: T4, TYK2 (Homo sapiens, UniProt P29597); details: target TYK2; read-out: CP1 IC50
T4 construct: ICE Biosciences (Beijing, China), a contract laboratory that ran the assay
Experimental: as §1

INSR = INSR (Homo sapiens, UniProt P06213); details: target INSR; read-out: CP1 IC50
Experimental: as §1

ABL2 = biological target: T5, ABL2 (Homo sapiens, UniProt P42684); details: target ABL2; read-out: CP1 IC50
T5 construct: ICE Biosciences (Beijing, China), ran the assays
T5 sequence (P42684 whole entry): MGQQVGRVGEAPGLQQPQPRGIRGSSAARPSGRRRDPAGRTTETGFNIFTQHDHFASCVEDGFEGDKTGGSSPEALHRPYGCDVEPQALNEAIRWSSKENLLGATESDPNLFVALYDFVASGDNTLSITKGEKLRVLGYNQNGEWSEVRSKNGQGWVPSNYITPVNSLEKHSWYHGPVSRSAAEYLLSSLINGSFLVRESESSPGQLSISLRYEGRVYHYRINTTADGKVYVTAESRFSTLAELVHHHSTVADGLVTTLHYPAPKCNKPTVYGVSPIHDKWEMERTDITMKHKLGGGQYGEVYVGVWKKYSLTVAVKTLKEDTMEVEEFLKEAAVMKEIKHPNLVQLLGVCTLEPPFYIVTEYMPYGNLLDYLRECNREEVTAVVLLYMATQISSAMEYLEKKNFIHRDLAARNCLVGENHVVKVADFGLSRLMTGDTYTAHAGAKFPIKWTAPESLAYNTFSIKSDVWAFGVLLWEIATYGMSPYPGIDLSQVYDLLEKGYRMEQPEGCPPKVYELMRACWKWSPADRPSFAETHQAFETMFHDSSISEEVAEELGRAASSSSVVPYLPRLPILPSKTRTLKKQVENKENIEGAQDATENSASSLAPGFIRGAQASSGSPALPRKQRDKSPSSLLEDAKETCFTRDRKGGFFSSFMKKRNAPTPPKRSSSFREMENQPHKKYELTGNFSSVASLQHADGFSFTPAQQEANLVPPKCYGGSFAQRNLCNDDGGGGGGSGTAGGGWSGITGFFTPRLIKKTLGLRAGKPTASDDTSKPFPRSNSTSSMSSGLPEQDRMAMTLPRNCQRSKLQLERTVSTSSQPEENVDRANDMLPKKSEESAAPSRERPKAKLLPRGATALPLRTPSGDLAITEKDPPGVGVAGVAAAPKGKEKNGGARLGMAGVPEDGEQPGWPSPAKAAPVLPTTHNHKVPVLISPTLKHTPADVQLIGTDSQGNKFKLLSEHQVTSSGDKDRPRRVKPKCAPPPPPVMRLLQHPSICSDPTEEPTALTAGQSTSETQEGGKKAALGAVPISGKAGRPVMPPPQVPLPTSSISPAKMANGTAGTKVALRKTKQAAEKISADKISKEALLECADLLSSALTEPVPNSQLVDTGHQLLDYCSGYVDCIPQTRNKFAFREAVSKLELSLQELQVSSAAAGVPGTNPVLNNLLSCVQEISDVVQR
Experimental: as §1

PRDX6 = biological target: T6, PRDX6 (Homo sapiens, UniProt P30041)
T6 construct: ICE Biosciences (Beijing, China), ran the assays
Experimental: as §1

ERBB2 = ERBB2 (Homo sapiens, UniProt P04626); details: target ERBB2; read-out: CP1 IC50
Experimental: as §1

EGFR = biological target: T7, EGFR (Homo sapiens, UniProt P00533); details: target EGFR; read-out: CP1 IC50
T7 construct: ICE Biosciences (Beijing, China), ran the assays
Experimental: as §1

TYRO3 = biological target: T8, TYRO3 (Homo sapiens, UniProt Q06418); details: target TYRO3; read-out: CP1 IC50
T8 construct: ICE Biosciences (Beijing, China), a contract laboratory that ran the assay
T8 sequence (Q06418 41-890, species assumed): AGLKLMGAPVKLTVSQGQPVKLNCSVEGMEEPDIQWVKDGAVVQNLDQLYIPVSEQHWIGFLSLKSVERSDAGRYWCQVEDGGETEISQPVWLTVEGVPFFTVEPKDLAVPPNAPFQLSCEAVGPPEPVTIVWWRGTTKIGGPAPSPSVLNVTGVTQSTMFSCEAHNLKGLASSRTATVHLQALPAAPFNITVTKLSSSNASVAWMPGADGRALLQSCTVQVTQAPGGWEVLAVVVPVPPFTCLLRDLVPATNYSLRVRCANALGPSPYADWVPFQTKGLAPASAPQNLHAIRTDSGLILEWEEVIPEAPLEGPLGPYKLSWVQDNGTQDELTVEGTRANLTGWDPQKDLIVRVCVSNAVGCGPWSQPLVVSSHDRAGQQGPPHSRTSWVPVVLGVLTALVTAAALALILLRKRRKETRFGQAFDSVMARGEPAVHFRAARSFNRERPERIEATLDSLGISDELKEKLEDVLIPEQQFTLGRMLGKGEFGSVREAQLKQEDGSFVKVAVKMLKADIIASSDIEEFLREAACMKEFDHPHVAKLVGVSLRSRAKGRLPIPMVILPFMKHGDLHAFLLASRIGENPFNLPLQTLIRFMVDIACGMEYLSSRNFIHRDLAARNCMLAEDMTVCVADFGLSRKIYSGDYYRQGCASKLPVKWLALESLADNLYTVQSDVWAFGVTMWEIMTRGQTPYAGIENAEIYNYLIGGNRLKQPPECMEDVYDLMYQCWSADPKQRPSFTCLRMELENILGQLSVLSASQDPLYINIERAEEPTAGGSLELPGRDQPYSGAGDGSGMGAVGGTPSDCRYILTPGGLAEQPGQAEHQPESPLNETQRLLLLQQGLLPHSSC
Experimental: as §1

FRK = biological target: T9, FRK (Homo sapiens, UniProt P42685); details: target FRK; read-out: CP1 IC50
T9 construct: assay run by ICE Biosciences (Beijing, China)
Experimental: as §1

JAK2 = JAK2 (Homo sapiens, UniProt O60674); details: target JAK2; read-out: CP1 IC50
Experimental: as §1

LCK = LCK (Homo sapiens, UniProt P06239); details: target LCK; read-out: CP1 IC50
Sequence of LCK (P06239 whole entry): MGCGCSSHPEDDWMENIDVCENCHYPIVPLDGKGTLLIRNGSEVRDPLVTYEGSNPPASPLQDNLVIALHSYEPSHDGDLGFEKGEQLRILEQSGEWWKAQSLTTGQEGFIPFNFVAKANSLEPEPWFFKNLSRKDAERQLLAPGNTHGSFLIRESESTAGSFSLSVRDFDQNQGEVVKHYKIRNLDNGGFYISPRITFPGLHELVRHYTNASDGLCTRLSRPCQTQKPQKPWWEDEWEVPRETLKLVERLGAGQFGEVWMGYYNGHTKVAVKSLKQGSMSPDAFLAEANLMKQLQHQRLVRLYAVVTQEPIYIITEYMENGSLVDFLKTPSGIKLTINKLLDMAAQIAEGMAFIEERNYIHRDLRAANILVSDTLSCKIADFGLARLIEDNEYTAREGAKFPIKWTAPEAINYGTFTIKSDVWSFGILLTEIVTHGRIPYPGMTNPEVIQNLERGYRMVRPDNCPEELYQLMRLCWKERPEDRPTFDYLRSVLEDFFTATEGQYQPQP
Experimental: as §1

SRC = biological target: T10, SRC (Homo sapiens, UniProt P12931); details: target SRC; read-out: CP1 IC50
T10 construct: assay run by ICE Biosciences (Beijing, China)
Experimental: as §1

FGFR2 = biological target: T11, FGFR2 (Homo sapiens, UniProt P21802); details: target FGFR2; read-out: CP1 IC50
T11 construct: assay run by ICE Biosciences (Beijing, China)
Experimental: as §1

MET = MET (Homo sapiens, UniProt P08581); details: target MET; read-out: CP1 IC50
Experimental: as §1

LTK = LTK (Homo sapiens, UniProt P29376); details: target LTK; read-out: CP1 IC50
Experimental: as §1

FGFR1 = biological target: T12, FGFR1 (Homo sapiens, UniProt P11362); details: target FGFR1; read-out: CP1 IC50
T12 construct: assay run by ICE Biosciences (Beijing, China)
T12 sequence (P11362 22-822): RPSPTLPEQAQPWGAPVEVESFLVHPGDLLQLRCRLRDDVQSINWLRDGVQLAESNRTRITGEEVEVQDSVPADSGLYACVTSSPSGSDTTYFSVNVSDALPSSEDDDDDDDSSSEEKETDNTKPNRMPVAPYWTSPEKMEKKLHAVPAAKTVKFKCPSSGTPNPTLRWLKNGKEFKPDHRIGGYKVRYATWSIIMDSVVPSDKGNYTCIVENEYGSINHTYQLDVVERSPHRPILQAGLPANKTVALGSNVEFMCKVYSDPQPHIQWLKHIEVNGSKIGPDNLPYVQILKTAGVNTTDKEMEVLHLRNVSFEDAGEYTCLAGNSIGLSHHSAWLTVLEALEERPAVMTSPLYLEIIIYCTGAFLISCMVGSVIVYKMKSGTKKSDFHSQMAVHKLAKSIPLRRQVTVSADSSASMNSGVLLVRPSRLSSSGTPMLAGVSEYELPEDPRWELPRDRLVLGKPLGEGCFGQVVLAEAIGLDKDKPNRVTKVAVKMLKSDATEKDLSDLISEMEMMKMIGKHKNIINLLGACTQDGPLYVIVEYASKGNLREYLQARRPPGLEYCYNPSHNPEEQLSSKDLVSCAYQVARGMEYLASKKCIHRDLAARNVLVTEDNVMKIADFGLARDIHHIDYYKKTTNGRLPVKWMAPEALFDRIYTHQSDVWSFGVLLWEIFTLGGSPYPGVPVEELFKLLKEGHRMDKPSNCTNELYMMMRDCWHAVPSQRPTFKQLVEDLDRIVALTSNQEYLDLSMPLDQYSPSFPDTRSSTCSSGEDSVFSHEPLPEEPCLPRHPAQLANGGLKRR
Experimental: as §1

FYN = biological target: T13, FYN (Homo sapiens, UniProt P06241); details: target FYN; read-out: CP1 IC50
T13 construct: assay run by ICE Biosciences (Beijing, China)
Experimental: as §1

PTK2B = biological target: T14, PTK2B (Homo sapiens, UniProt Q14289); details: target PTK2B; read-out: CP1 IC50
T14 construct: assay run by ICE Biosciences (Beijing, China)
T14 sequence (Q14289 whole entry): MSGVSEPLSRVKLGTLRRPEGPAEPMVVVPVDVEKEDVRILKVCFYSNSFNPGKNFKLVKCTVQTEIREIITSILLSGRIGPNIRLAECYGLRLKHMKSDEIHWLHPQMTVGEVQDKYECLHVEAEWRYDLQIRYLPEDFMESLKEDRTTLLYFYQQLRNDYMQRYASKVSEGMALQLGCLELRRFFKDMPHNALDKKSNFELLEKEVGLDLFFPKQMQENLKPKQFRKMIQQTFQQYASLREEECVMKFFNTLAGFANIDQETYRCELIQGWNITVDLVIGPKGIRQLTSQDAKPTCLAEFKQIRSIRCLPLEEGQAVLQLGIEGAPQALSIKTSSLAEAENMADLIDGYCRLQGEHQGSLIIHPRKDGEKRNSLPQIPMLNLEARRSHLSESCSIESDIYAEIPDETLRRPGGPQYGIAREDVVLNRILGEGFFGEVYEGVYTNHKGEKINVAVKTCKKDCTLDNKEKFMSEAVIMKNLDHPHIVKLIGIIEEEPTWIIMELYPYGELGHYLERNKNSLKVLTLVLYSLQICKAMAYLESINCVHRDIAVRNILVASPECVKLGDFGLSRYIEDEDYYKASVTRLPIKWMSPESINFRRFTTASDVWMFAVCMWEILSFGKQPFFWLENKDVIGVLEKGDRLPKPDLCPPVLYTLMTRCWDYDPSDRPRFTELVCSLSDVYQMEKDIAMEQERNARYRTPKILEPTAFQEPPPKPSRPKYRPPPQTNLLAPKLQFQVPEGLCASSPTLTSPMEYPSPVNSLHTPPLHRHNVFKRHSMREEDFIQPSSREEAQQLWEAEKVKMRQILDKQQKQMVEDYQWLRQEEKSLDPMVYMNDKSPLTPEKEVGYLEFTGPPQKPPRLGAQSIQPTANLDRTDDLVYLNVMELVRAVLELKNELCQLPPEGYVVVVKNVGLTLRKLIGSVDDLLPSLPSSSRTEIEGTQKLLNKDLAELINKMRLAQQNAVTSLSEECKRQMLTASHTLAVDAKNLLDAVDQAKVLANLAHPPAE
Experimental: as §1

TNK2 = biological target: T15, TNK2 (Homo sapiens, UniProt Q07912); details: target TNK2; read-out: CP1 IC50
T15 construct: assay run by ICE Biosciences (Beijing, China)
Experimental: as §1

ALK = biological target: T16, ALK (Homo sapiens, UniProt Q9UM73); details: target ALK; read-out: CP1 IC50
T16 construct: ICE Biosciences (Beijing, China), ran the assays
Experimental: as §1

ITK = ITK (Homo sapiens, UniProt Q08881); details: target ITK; read-out: CP1 IC50
Experimental: as §1

BTK = biological target: T17, BTK (Homo sapiens, UniProt Q06187); details: target BTK; read-out: CP1 IC50
T17 construct: ICE Biosciences (Beijing, China), ran the assays
Experimental: as §1

BLK = biological target: T18, BLK (Homo sapiens, UniProt P51451); details: target BLK; read-out: CP1 IC50
T18 construct: ICE Biosciences (Beijing, China), ran the assays
Experimental: as §1

JAK1 = JAK1 (Homo sapiens, UniProt P23458); details: target JAK1; read-out: CP1 IC50
Experimental: as §1

BMX = biological target: T19, BMX (Homo sapiens, UniProt P51813); details: target BMX; read-out: CP1 IC50
T19 construct: ICE Biosciences (Beijing, China), ran the assays
Experimental: as §1

JAK3 = JAK3 (Homo sapiens, UniProt P52333); details: target JAK3; read-out: CP1 IC50
Experimental: as §1

PRDX5 = biological target: T20, PRDX5 (Homo sapiens, UniProt P30044); details: target PRDX5; read-out: CP1 IC50
T20 construct: ICE Biosciences (Beijing, China), ran the assays
T20 sequence (P30044 53-214): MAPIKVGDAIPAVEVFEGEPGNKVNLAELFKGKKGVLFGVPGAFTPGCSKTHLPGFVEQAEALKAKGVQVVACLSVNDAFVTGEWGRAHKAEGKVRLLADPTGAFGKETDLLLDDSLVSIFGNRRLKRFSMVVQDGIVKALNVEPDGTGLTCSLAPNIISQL
Experimental: as §1

HCK = biological target: T21, HCK (Homo sapiens, UniProt P08631); details: target HCK; read-out: CP1 IC50
T21 construct: ICE Biosciences (Beijing, China), ran the assays
T21 sequence (P08631 whole entry): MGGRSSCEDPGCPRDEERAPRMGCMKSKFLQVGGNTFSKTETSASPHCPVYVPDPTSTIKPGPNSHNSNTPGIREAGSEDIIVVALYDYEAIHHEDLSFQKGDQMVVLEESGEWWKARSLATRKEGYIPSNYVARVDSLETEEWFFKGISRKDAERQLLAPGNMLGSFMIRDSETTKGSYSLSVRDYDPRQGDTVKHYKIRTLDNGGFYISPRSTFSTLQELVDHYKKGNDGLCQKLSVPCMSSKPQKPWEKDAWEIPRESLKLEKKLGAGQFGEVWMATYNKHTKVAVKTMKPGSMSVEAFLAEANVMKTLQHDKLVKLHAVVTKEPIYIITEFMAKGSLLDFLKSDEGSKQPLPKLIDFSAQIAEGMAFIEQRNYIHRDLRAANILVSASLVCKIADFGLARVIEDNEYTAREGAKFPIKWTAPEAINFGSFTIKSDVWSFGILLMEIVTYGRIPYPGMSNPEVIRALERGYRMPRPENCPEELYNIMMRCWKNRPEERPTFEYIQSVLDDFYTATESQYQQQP
Experimental: as §1

FGFR4 = biological target: T22, FGFR4 (Homo sapiens, UniProt P22455); details: target FGFR4; read-out: CP1 IC50
T22 construct: assay run by ICE Biosciences (Beijing, China)
Experimental: as §1

KDR = KDR (Homo sapiens, UniProt P35968); details: target KDR; read-out: CP1 IC50
Experimental: as §1

CSK = biological target: T23, CSK (Homo sapiens, UniProt P41240); details: target CSK; read-out: CP1 IC50
T23 construct: ICE Biosciences (Beijing, China), ran the assays
Experimental: as §1

Measured: IC50

CC1=C(CC(=O)/C=C/c2cccc(CO)c2)C(=O)C=C2C1=CC=C1[C@@]2(C)CC[C@@]2(C)C3C[C@](C)(C(=O)CCc4nc(C(O)C(O)O)c(C)nc4C)CC[C@]3(C)CC[C@]12C (stereo partly shown) [CP1]
> 30 µM: INSRR | FES | FGR | YES1 | TYK2 | INSR | ABL2 | PRDX6 | ERBB2 | EGFR | TYRO3 | FRK | JAK2 | LCK | SRC | FGFR2 | MET | LTK | FGFR1 | FYN | PTK2B | TNK2 | ALK | ITK | BTK | BLK | JAK1 | BMX | JAK3 | PRDX5 | HCK | FGFR4 | KDR | CSK
